We go through eight compounds from PMC11401107 (Heliyon, 2024).

One data set deals with T1, soybean 15-LOX (Glycine max, UniProt P08170).
T1 sequence (P08170 1-839): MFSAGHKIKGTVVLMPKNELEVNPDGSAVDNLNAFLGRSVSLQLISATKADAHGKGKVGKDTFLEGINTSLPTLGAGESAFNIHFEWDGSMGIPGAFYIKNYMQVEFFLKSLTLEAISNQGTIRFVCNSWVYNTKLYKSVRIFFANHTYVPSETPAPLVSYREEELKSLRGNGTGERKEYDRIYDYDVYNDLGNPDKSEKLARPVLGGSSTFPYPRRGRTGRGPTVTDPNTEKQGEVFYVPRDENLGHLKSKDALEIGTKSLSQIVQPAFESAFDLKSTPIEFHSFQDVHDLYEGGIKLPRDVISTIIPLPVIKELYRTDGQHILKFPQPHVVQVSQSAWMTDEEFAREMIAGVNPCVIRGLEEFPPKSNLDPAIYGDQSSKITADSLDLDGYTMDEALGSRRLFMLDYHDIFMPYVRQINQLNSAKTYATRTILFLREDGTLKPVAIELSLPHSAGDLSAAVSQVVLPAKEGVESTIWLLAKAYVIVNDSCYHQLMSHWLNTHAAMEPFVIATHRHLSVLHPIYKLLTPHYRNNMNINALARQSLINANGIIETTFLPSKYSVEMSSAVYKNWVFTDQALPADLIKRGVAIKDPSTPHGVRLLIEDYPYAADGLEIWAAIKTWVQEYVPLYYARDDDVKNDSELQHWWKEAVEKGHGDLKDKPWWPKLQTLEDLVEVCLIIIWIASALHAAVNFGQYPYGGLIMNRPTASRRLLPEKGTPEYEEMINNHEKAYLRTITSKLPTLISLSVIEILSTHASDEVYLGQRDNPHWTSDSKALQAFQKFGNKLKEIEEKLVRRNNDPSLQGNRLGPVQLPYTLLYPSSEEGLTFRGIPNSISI
In words: 15-LOX inhibition assay. Format: biochemical. As to conditions: for 15-LOX assay Inhibition (%) at 0.25 mM / 15-LOX assay IC50 (μM) / IC50: Mean ± SEM, n = 3; for IC50: read-out: 15-LOX assay IC50; for inhibition at 250 µM: read-out: 15-LOX assay Inhibition (%) at 0.25 mM.

The subject of data set [1] is human blood mononuclear cells (MNCs). The data set is described as follows: Cell viability assay. Format: cell-based. As to conditions: MNCs; 0.25 mM; Mean ± SEM, n = 3.
For the next data set, the system named is LOX. To be noted: LOX inhibition; cited from earlier work.
The next data set is described as follows: Cell viability assay. It is filed as cell-based, human. To be noted: human, human blood mononuclear cells (MNCs), pH 7.4.

As usually defined, the IC50 is the concentration that gives 50% inhibition. On to `CCn1c(SC(C)C(=O)Nc2c(C)cccc2C)nnc1C1CCN(C(=O)Nc2ccccc2)CC1` (centres unmarked) [7k, 2-(5-(1-Phenylcarbamoylpiperdine-4-yl)-4-ethyl-4H-1,2,4-triazol-3-ylthio)-N-2,6-dimethylphenylpropanamide], for which, on soybean 15-LOX, the “15-LOX assay Inhibition (%) at 0.25 mM” value was 56.49 ± 1.59%, the “15-LOX assay IC50 (μM)” value was “inactive” and the IC50 was > 200 µM. The “MTT assay Cell viability (%) at 0.25 mM” value in data set [1] came out at 75.67 ± 2.8%.

As to `CCn1c(SC(C)C(=O)Nc2cc(C)cc(C)c2)nnc1C1CCN(C(=O)Nc2ccccc2)CC1` (centres unmarked) [7m, 2-(5-(1-Phenylcarbamoylpiperdine-4-yl)-4-ethyl-4H-1,2,4-triazol-3-ylthio)-N-3,5-dimethylphenylpropanamide], on soybean 15-LOX, the “15-LOX assay Inhibition (%) at 0.25 mM” value was 57.37 ± 1.46%, the “15-LOX assay IC50 (μM)” value is “inactive” and the IC50 is > 200 µM. For the same compound, the “MTT assay Cell viability (%) at 0.25 mM” value in data set [1] worked out at 78.24 ± 2.7%.

As to `Cc1ccc(NN=C2C(=N)N(c3ccc(S(N)(=O)=O)cc3)N=C2N)cc1` [ii, 4-{3-amino-4-[(4-methylphenyl)-hydrazono]-5-imino-4,5-dihydropyrazol-1-yl}-benzenesulfonamide], the half-inhibitory concentration (IC50) with LOX is 1.92 ± 0.01 µM.

`COc1ccc(-c2csc3nc(-c4ccccc4)c(NC(C)(C)CC(C)(C)C)n23)cc1` [i, 3-(4-methoxyphenyl)-N-(2,4,4-trimethylpentane-2-yl)-6-phenylimidazo [2,1-b]thiazol-5-amine]: in the data set with LOX, the IC50 is 11.5 ± 0.78 µM.

Broadly, the viability is a read-out of living cells in per cent, often relative to untreated cells. Read a low viability as a greater loss of cells. Compound `COc1cc(/C=C/C(=O)CC(=O)/C=C/c2ccc(O)c(OC)c2)ccc1O` [Curcumin, reference compound] showed a viability at 2 h, 0.25 mM in the data set “Cell viability assay” of 71.8 ± 2.8%.

Consider `O=P1(N(CCCl)CCCl)NCCCO1` (centres unmarked) [Cyclophosphamide, reference compound], for which the viability at 2 h, 0.25 mM in the data set “Cell viability assay” is 58.5 ± 2.6%.

The inhibition is how much of the control response was suppressed. As to `O=c1cc(-c2ccccc2)oc2cc(O)c(O)c(O)c12` [Baicalein, reference compound], the inhibition at 250 µM on soybean 15-LOX amounted to 93.8 ± 1.27%.

Take `O=c1c(O)c(-c2ccc(O)c(O)c2)oc2cc(O)cc(O)c12` [Quercetin, reference compound]: at soybean 15-LOX, the inhibition at 250 µM worked out at 96.6 ± 1.24%.
